Measurements from patent US20120214862A1, “MODULATION OF FACTOR 7 EXPRESSION” (ISIS Pharmaceuticals, Inc., priority 2009, published 2012).
In the oligonucleotide strings, read from the 5' end, every base follows the letter of its sugar. An asterisk marks phosphorothioate; unmarked linkages are phosphodiester. Other units and linkages are bracketed, terminal groups are in braces. A string of capitals states the bases alone. e = 2'-O-(2-methoxyethyl) (MOE); [5mC] = 5-methylcytosine; d = 2'-deoxy (DNA)

Tests used:
human Factor 7 mRNA [1] = test: Antisense inhibition of human Factor 7 mRNA in HepB3 cells, lipofectin, 50 nM, real-time RT-PCR; assay type: cell-based; conditions: for % Inhibition (human Factor 7 mRNA): 50 nM, ~24 h
Method in brief: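 Seeding density was 4,000 cells per well. Following roughly 24 hours of oligonucleotide treatment, RNA was extracted and Factor 7 message quantified using the RTS 2927 primer probe set. Levels were corrected for RIBOGREEN® total RNA and expressed against untreated controls.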

human Factor 7 mRNA [2] = test: Dose-dependent antisense inhibition of human Factor 7 in HepB3 cells, transfection with lipofectin; assay type: cell-based; conditions: for percent inhibition of Factor 7 mRNA, 6.25 nM / percent inhibition of Factor 7 mRNA, 12.5 nM / percent inhibition of Factor 7 mRNA, 25.0 nM / percent inhibition of Factor 7 mRNA, 50.0 nM / percent inhibition of Factor 7 mRNA, 100.0 nM / percent inhibition of Factor 7 mRNA, 3.125 nM: HepB3, lipofectin, ~16 h; for percent inhibition of Factor 7 mRNA, relative to untreated control cells: lipofectin, HepB3 cells, 16 hours
Procedure: Cells were plated at a density of 4,000 cells per well and treated with lipofectin reagent with 3.125 nM, 6.25 nM, 12.5 nM, 25 nM, 50 nM, and 100 nM concentrations of antisense oligonucleotide, as indicated in Table 3. After a treatment period of approximately 16 hours, RNA was isolated from the cells and Factor 7 mRNA levels were measured by real-time RT-PCR, as described herein. Human Factor 7 primer probe set RTS 2927 (forward sequence: […], incorporated herein as SEQ ID NO: 164; reverse sequence: […], incorporated herein as SEQ ID NO: 165; probe sequence: TGGGTGGTCTCCGCGGCCX, incorporated herein as SEQ ID NO: 166) was used to measure mRNA levels. Factor 7 mRNA levels were adjusted according to total RNA content as measured by RIBOGREEN®. Results are presented as percent inhibition of Factor 7, relative to untreated control cells.
Cells were plated at a density of 4,000 cells per well and transfected using lipofectin reagent with 6.25 nM, 12.5 nM, 25.0 nM, 50.0 nM, and 100.0 nM concentrations of antisense oligonucleotide, as indicated in Table 7. After a treatment period of approximately 16 hours, RNA was isolated from the cells and Factor 7 mRNA levels were measured by real-time RT-PCR, as described herein. Human Factor 7 primer probe set RTS 2927 was used to measure mRNA levels. Factor 7 mRNA levels were adjusted according to total RNA content as measured by RIBOGREEN®. Results are presented as percent inhibition of Factor 7, relative to untreated control cells.
Cells were plated at a density of 4,000 cells per well and transfected using lipofectin reagent with 3.125 nM, 6.25 nM, 12.5 nM, 25 nM, 50 nM, and 100 nM concentrations of antisense oligonucleotide, as specified in Table 14. After a treatment period of approximately 16 hours, RNA was isolated from the cells and Factor 7 mRNA levels were measured by quantitative real-time PCR. Human Factor 7 primer probe set RTS 2927 was used to measure mRNA levels. Factor 7 mRNA levels were adjusted according to total RNA content, as measured by RIBOGREEN®. Results are presented as percent inhibition of Factor 7, relative to untreated control cells.

[3] = HepB3 cells, lipofectin, 50 nM antisense oligonucleotide, approximately 24 hours, primer probe set RTS 2927, relative to untreated control
[4] = HepB3 cells, gapmers (5-10-5, 3-14-3, 2-13-5 MOE) targeted to nucleobases 4868 to 4899 of SEQ ID NO: 1
[5] = Example 1, HepB3 cells, lipofectin, relative to untreated control cells

| Substance | % Inhibition of human Factor 7 mRNA levels (human Factor 7 mRNA [1]; [3]) [%] | percent inhibition of Factor 7 mRNA, 6.25 nM (human Factor 7 mRNA [2]; Example 5) [%] | percent inhibition of Factor 7 mRNA, 12.5 nM (human Factor 7 mRNA [2]; Example 5, 12.5 nM) [%] | percent inhibition of Factor 7 mRNA, 25.0 nM (human Factor 7 mRNA [2]; Example 5) [%] | percent inhibition of Factor 7 mRNA, 50.0 nM (human Factor 7 mRNA [2]; Example 5) [%] | percent inhibition of Factor 7 mRNA, 100.0 nM (human Factor 7 mRNA [2]; Example 5) [%] | % Inhibition (human Factor 7 mRNA) (human Factor 7 mRNA [1]; [5]) [%] | percent inhibition of Factor 7 mRNA, 3.125 nM (human Factor 7 mRNA [2]; Example 2, 3.125 nM) [%] | percent inhibition of Factor 7 mRNA, 6.25 nM (human Factor 7 mRNA [2]; Example 2) [%] | percent inhibition of Factor 7 mRNA, 12.5 nM (human Factor 7 mRNA [2]; Example 2, 12.5 nM) [%] | percent inhibition of Factor 7 mRNA, 25.0 nM (human Factor 7 mRNA [2]; Example 2) [%] | percent inhibition of Factor 7 mRNA, 50.0 nM (human Factor 7 mRNA [2]; Example 2) [%] | percent inhibition of Factor 7 mRNA, 100.0 nM (human Factor 7 mRNA [2]; Example 2) [%] | further results |
| --- | --- | --- | --- | --- | --- | --- | --- | --- | --- | --- | --- | --- | --- | --- |
| 416472 (antisense e[5mC]*eA*eG*e[5mC]*e[5mC]*dT*dT*dG*dG*d[5mC]*dT*dT*dT*d[5mC]*dT*e[5mC]*eT*e[5mC]*e[5mC]*eA) [compound 416472] | 76 | 16 | 44 | 64 | 80 | 88 |  |  |  |  |  |  |  |  |
| 416549 (antisense eG*eA*e[5mC]*eA*eA*dT*dG*dG*dT*d[5mC]*dA*dG*dG*dG*d[5mC]*eT*eG*eG*eT*eT) [compound 416549] | 68 | 38 | 44 | 63 | 73 | 78 |  |  |  |  |  |  |  | % Inhibition of human Factor 7 mRNA levels (human Factor 7 mRNA [1]; HepB3 cells, gapmers targeted to nucleobases 11830 to 11869 of SEQ ID NO: 1 (Table 9)): 69% |
| 422294 (antisense eG*eA*dG*dT*dT*d[5mC]*dT*dG*d[5mC]*dA*dG*dG*dA*dG*d[5mC]*eG*eG*e[5mC]*e[5mC]*eT) [compound 422294] |  |  |  |  |  |  |  |  |  |  |  |  |  | % Inhibition of human Factor 7 mRNA levels (human Factor 7 mRNA [1]; [4]): 78%; percent inhibition of Factor 7 mRNA, relative to untreated control cells (human Factor 7 mRNA [2]; 3.125 nM): 9%; percent inhibition of Factor 7 mRNA, relative to untreated control cells (human Factor 7 mRNA [2]; 12.5 nM): 32%; percent inhibition of Factor 7 mRNA, relative to untreated control cells (human Factor 7 mRNA [2]; 25 nM): 61%; percent inhibition of Factor 7 mRNA, relative to untreated control cells (human Factor 7 mRNA [2]; 50 nM): 77%; percent inhibition of Factor 7 mRNA, relative to untreated control cells (human Factor 7 mRNA [2]; 100 nM): 84%; percent inhibition of Factor 7 mRNA, relative to untreated control cells (human Factor 7 mRNA [2]): 21% |
| 407643 (antisense e[5mC]*eA*e[5mC]*eA*e[5mC]*dA*dT*dG*dG*dA*dG*dT*d[5mC]*dA*dG*e[5mC]*eA*eT*e[5mC]*eG) [compound 407643] | 80 | 36 | 49 | 70 | 83 | 93 | 84 | 16 | 59 | 68 | 76 | 92 | 95 | % Inhibition (human Factor 7 mRNA) (human Factor 7 mRNA [1]; Example 6 microwalk, nucleobases 15098 to 15122 of SEQ ID NO: 1, HepB3, lipofectin): 69% |
| 407606 (antisense e[5mC]*eT*eG*eG*eT*d[5mC]*d[5mC]*dT*dT*dG*d[5mC]*dA*dG*dG*dA*eG*e[5mC]*e[5mC]*e[5mC]*e[5mC]) [compound 407606] | 57 |  |  |  |  |  | 89 | 20 | 0 | 49 | 55 | 83 | 84 |  |
| 416449 (antisense eT*eA*eG*eG*eT*dA*dT*dT*dT*dT*dT*d[5mC]*d[5mC]*dA*d[5mC]*eA*eT*eG*eG*eA) [compound 416449] | 68 | 19 | 33 | 45 | 65 | 85 |  |  |  |  |  |  |  |  |
| 416507 (antisense eG*eG*eT*eT*eA*d[5mC]*dT*dG*dA*dG*d[5mC]*dG*d[5mC]*dG*dG*eA*eA*eG*eA*eA) [compound 416507] | 73 | 30 | 53 | 70 | 77 | 72 |  |  |  |  |  |  |  |  |
| 416508 (antisense e[5mC]*eG*eA*eG*eT*dT*d[5mC]*dT*dG*d[5mC]*dA*dG*dG*dA*dG*e[5mC]*eG*eG*e[5mC]*e[5mC]) [compound 416508] | 67 | 42 | 51 | 71 | 79 | 89 |  |  |  |  |  |  |  | % Inhibition of human Factor 7 mRNA levels (human Factor 7 mRNA [1]; [4]): 67% |
| 407594 (antisense e[5mC]*e[5mC]*eT*eG*e[5mC]*dA*dG*d[5mC]*d[5mC]*dA*dG*dG*d[5mC]*dA*dG*e[5mC]*e[5mC]*e[5mC]*eT*eG) [compound 407594] |  |  |  |  |  |  | 87 | 10 | 34 | 63 | 77 | 84 | 80 |  |
| 407936 (antisense eG*eG*e[5mC]*eA*eT*dT*d[5mC]*dG*d[5mC]*d[5mC]*dA*d[5mC]*d[5mC]*dA*dT*eG*e[5mC]*eA*eT*eG) [compound 407936] |  |  |  |  |  |  | 91 | 45 | 77 | 79 | 86 | 91 | 90 |  |
| 407641 (antisense e[5mC]*e[5mC]*eT*eG*eA*dG*dG*d[5mC]*d[5mC]*dA*dG*d[5mC]*dA*dG*dA*eT*e[5mC]*eA*e[5mC]*eG) [compound 407641] | 73 |  |  |  |  |  | 94 | 53 | 53 | 71 | 84 | 88 | 89 | % Inhibition of human Factor 7 mRNA levels (human Factor 7 mRNA [1]; HepB3 cells, gapmers targeted to nucleobases 14707 to 14732 of SEQ ID NO: 1 (Table 11)): 68% |
| 407900 (antisense e[5mC]*e[5mC]*e[5mC]*e[5mC]*eA*d[5mC]*dA*dA*dT*dT*d[5mC]*dG*dG*d[5mC]*d[5mC]*eT*eT*eG*eG*eG) [compound 407900] | 78 | 18 | 36 | 61 | 82 | 91 | 91 | 52 | 58 | 80 | 87 | 94 | 91 |  |
| 416438 (antisense e[5mC]*eA*eG*eG*eA*dG*d[5mC]*d[5mC]*d[5mC]*d[5mC]*d[5mC]*dA*dT*dT*d[5mC]*eT*eG*eG*e[5mC]*eA) [compound 416438] | 63 | 11 | 33 | 56 | 75 | 82 |  |  |  |  |  |  |  |  |
